Data reported in the supplement of paper PMC10307832.

Legend:
Experiment in all cases: relative viability (nuclei count vs DMSO), 5 days (fraction); higher = more cells survive
[1] = compound: C1=CC2=C(C=CC(=C2)C=C3C(=O)NC(=NCC4=CC=CS4)S3)N=C1 [RO-3306] + CC1(C)CCC(c2ccc(Cl)cc2)=C(CN2CCN(c3ccc(C(=O)NS(=O)(=O)c4ccc(N[C@H](CCN5CCOCC5)CSc5ccccc5)c(S(=O)(=O)C(F)(F)F)c4)cc3)CC2)C1 [Navitoclax] (partner 0.5 µM)
In short: (§1)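 A single step with final 0.05% Triton X-100, 1% formaldehyde and 1 ug/ml Hoechst fixed the cells and stained nuclei 5 days after treatment. Lung cancer cell lines in 1536-well plates had been treated by pin tool the day after seeding with one drug alone or a fixed anchor-drug dose plus five library-drug doses (not always all listed) in √10 steps, and nuclei were counted on 4× images. Relative viability is the ratio of nuclei in treated wells to nuclei in vehicle wells, taken as the median of duplicate plates.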

[2] = compound: O=S(=O)(c1ccccc1)N(CC(F)(F)F)c1ccc(C(O)(C(F)(F)F)C(F)(F)F)cc1 + COc1cccc2cc(-c3nc([C@H]4CC[C@H](C(=O)O)CC4)n4ncnc(N)c34)[nH]c12 [OSI-027] (partner 0.5 µM)
In short: as §1

[3] = compound: O=S(=O)(c1ccccc1)N(CC(F)(F)F)c1ccc(C(O)(C(F)(F)F)C(F)(F)F)cc1 + O=C(CCCCCCC(=O)Nc1ccccc1)NO [Vorinostat] (partner 1 µM)
In short: as §1

[4] = compound: C1=CC2=C(C=CC(=C2)C=C3C(=O)NC(=NCC4=CC=CS4)S3)N=C1 [RO-3306] + CS(=O)(=O)N1CCN(Cc2cc3nc(-c4cccc5[nH]ncc45)nc(N4CCOCC4)c3s2)CC1 [Pictilisib] (partner 1 µM)
In short: as §1

Cell Line	relative viability ([1]; first compound 0.01 µM)	relative viability ([1]; first compound 0.1 µM)	relative viability ([1]; first compound 0.3162 µM)	relative viability ([1]; first compound 1 µM)	relative viability ([2]; first compound 0.8 µM)	relative viability ([2]; first compound 2.53 µM)	relative viability ([2]; first compound 8 µM)	relative viability ([3]; first compound 0.8 µM)	relative viability ([3]; first compound 2.53 µM)	relative viability ([3]; first compound 8 µM)	relative viability ([4]; first compound 0.01 µM)	relative viability ([4]; first compound 0.1 µM)	relative viability ([4]; first compound 0.3162 µM)	relative viability ([4]; first compound 1 µM)	relative viability ([1]; first compound 0.03162 µM)	relative viability ([4]; first compound 0.03162 µM)
COR-L23	0.734	0.974	1.01	0.937	0.85	0.793	0.734	0.522	0.543	0.423	0.816	0.835	0.77	0.67		
NCI-H596	0.894	0.962	0.994	0.72	0.71	0.6	0.716	0.583	0.559	0.6	0.345	0.375	0.372	0.287	0.967	0.394
BEN	0.057	0.0739	0.0677	0.0527	0.344	0.266	0.308	0.581	0.543	0.566	0.559	0.532	0.697	0.623	0.0628	0.487
HCC-15	0.727	0.716	0.808	0.654	0.799	0.607	0.623	0.748	0.682	0.63	0.707	0.717	0.815	0.542	0.656	0.603
NCI-H460	1.26	1.26	1.35	1.22	0.882	0.699	0.723	0.847	0.673	0.618	0.388	0.371	0.329	0.32		0.374
EMC-BAC-2	1.44	1.25	1.24	1.14	0.455	0.422	0.37	0.336	0.296	0.467	0.503	0.54	0.531	0.483	0.984	0.511
NCI-H520	1.27	1.13	1.01	0.942	0.298	0.21	0.281	0.847	0.678	0.77	0.307	0.283	0.312	0.314	1.13	0.266
NCI-H1993		0.892	0.864	0.83	0.58	0.341	0.552	0.859	0.575	0.836		0.686	0.743	0.897	0.926	0.956
NCI-H2126	0.868	0.822	0.858	0.756	0.819	0.673	0.717	0.89	0.684	0.723	0.413	0.506	0.425	0.477	0.816	0.426
LK-2	0.892	0.828	0.913	0.792	0.213	0.199	0.229	0.27	0.247	0.346	0.482	0.64	0.681	0.534	0.751	0.499
NCI-H441	0.593	0.382	0.57	0.364	0.669	0.517	0.62	0.464	0.85	0.781	0.491	0.387	0.607	0.451	0.71	0.332
SW 1573	0.838	0.892	0.886	0.966	0.863	0.619	0.487	0.634	0.722	0.725	0.536	0.534	0.534	0.39		0.406
NCI-H322M	1.24	1.25	1.22	1.19	0.61	0.501	0.506	0.883	0.842	0.869	0.493	0.485	0.556	0.585	1.14	0.486
ChaGo-K-1	0.971	0.629	0.952	0.675	0.687	0.522	0.6	0.885	0.732	0.655	0.692	0.449	0.69	0.49	1.23	0.701
NCI-H1793	0.432	0.46	0.46	0.358	0.292	0.188	0.207	0.574	0.539	0.521	0.402	0.34	0.258	0.389	0.391	0.276
EKVX	1.02	1.06	0.971	0.921	0.746	0.646	0.691	0.697	0.513	0.535	0.402	0.449	0.498	0.431	0.94	0.362
NCI-H1355	1.12	0.949	1.04	0.946	0.409	0.366	0.453	0.698	0.624	0.606	0.423	0.493	0.512	0.316	0.915	0.396
